Test results reported in patent US20250223307A1, “MDM2/MDMX DOUBLE-TARGET INHIBITOR COMPOUND, PRODRUG, PHARMACEUTICAL COMPOSITION, AND PREPARATION METHOD THEREFOR AND USE THEREOF” (GLOBAL HEALTH DRUG DISCOVERY INSTITUTE, priority 2022, published 2025).

Columns and labels:
[1] = tested on: Blood cancer cells RS4; 11; assay: CellTiter Glo test: growth inhibition of cells; type: cell-based; details: Homo sapiens, 11 cells, 72 h, cell viability
Description: Test of Candidate Compounds on Growth Inhibition of Cells Determined by CellTiter Glo
Blood cancer cells RS4; 11 were inoculated into the 96-well cell culture plate through Multidrop 3000 cells per well, with a volume of 100 μL. The final compound concentration ranged from 50 μM to 0.01 μM at 9 concentration gradients and the DMSO final concentration was 0.1%. The cells and compounds were co-incubated in a cell incubator at 37° C. for 72 h, a CellTiter-Glo Luminescent Cell Viability Assay reagent was added 100 μL/well, the cells and compound were uniformly mixed and incubated at room temperature for 10 min, and Envision reading was performed. A sample treated with 50 μM of a positive compound was taken as a positive control and a sample treated with 100 nL of DMSO was taken as a negative control.

MDMX = molecular target: T1, MDMX (Homo sapiens, UniProt O15151); assay: HTRF test: inhibition of MDMX-p53 protein binding
T1 sequence (O15151 2-134): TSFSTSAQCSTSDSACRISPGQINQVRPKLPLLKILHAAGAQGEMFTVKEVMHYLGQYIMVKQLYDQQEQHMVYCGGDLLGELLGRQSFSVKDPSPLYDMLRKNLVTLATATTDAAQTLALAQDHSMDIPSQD

MDM2 = MDM2 (Homo sapiens, UniProt Q00987); assay: HTRF test: inhibition of MDM2-p53 protein binding
Chain of MDM2 (Q00987 2-138): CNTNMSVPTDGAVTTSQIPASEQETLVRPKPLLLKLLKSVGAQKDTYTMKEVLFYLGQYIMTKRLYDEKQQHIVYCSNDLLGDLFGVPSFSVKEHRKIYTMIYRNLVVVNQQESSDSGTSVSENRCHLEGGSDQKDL

Compound	IC50 [1] [nM]	IC50 (MDMX) [nM]	IC50 (MDM2) [nM]
Cc1c(Cl)ccc2c(/C=C3\NC(=O)N(C(C(=O)NC(CO)(CO)CO)c4ccc(F)c(F)c4)C3=O)c[nH]c12 (stereo not drawn) [Compound 30, (Z)-2-(4-((6-chloro-7-methyl-1H-indol-3-yl)methylene)-2,5-dioxoimidazolidin-1-yl)-2-(3,4-difluorophenyl)-N-(1,3-dyhydroxl-2-(hydroxymethyl)-2-propyl)acetamide]	≤ 1000	< 10	< 10
O=C1N/C(=C\c2c[nH]c3c(F)c(Cl)ccc23)C(=O)N1Cc1ccc(F)c(F)c1 [Compound 10, (Z)-5-((6-chloro-7-fluoro-1H-indol-3-yl)methylene)-3-(3,4-difluorobenzyl)imidazolidine-2,4-dione]	1000 to 10000	10 to 100	10 to 100
O=C1N/C(=C\c2c[nH]c3c(OCF)c(Cl)ccc23)C(=O)N1Cc1ccc(Cl)cc1 [Compound 12, (Z)-5-((6-chloro-7-(fluoromethoxyl)-1H-indol-3-yl)methylene)-3-(4-chlorobenzyl)imidazolidine-2,4-dione]	> 10000	10 to 100	10 to 100
O=C1N/C(=C\c2c[nH]c3cc(Cl)ccc23)C(=O)N1Cc1ccc(Cl)cc1 [Compound 2, (Z)-5-((6-chloro-1H-indol-3-yl)methylene)-3-(4-chlorobenzyl)imidazolidine-2,4-dione]	≤ 1000	10 to 100	10 to 100
N#Cc1ccc(C(C(=O)NC(CO)CO)N2C(=O)N/C(=C\c3c[nH]c4c(F)c(Cl)ccc34)C2=O)cc1 (stereo not drawn) [Compound 29, (Z)-2-(4-((6-chloro-7-fluoro-1H-indol-3-yl)methylene)-2,5-dioxoimidazolidin-1-yl)-2-(4-cyanophenyl)-N-(1,3-dihydroxypropan-2-yl)acetamide]	1000 to 10000	< 10	< 10
Cc1c(Cl)ccc2c(/C=C3\NC(=O)N([C@H](CO)c4ccc(C#N)cc4)C3=O)c[nH]c12 [Compound 97, (S,Z)-4-(1-(4-((6-chloro-7-methyl-1H-indol-3-yl)methylene)-2,5-dioxoimidazolidin-1-yl)-2-hydroxyethyl)benzonitrile]	≤ 1000	10 to 100	10 to 100
O=C1N/C(=C\c2c[nH]c3cc(Cl)ccc23)C(=O)N1C(CO)c1ccc(F)c(F)c1 (stereo not drawn) [Compound 26]	≤ 1000	< 10	< 10
O=C1N/C(=C\c2c[nH]c3c(F)c(Cl)ccc23)C(=O)N1Cc1c(F)cc(Cl)cc1F [Compound 102, (Z)-3-(4-chloro-2,6-difluorobenzyl)-5-((6-chloro-7-fluoro-1H-indol-3-yl)methylene)imidazolidine-2,4-dione]	≤ 1000	10 to 100	10 to 100
O=C1N/C(=C\c2c[nH]c3c(F)c(Cl)ccc23)C(=O)N1C(CO)c1ccc(Cl)c(F)c1F (stereo not drawn) [Compound 105, (Z)-3-(1-(4-chloro-2,3-difluorophenyl)-2-hydroxyethyl)-5-((6-chloro-7-fluoro-1H-indol-3-yl)methylene)imidazolidine-2,4-dione]	≤ 1000	10 to 100	10 to 100
Cc1c(Cl)ccc2c(/C=C3\NC(=O)N(Cc4ccc(C#N)cc4)C3=O)c[nH]c12 [Compound 19, (Z)-4-((4-((6-chloro-7-methyl-1H-indol-3-yl)methylene)-2,5-dioxoimidazolidin-1-yl)methyl)benzonitrile]	≤ 1000	< 10	< 10
O=C1N/C(=C\c2c[nH]c3cc(Cl)ccc23)C(=O)N1Cc1ccc(F)c(F)c1 [Compound 1, (Z)-5-((6-chloro-1H-indol-3-yl)methylene)-3-(3,4-difluorobenzyl)imidazolidine-2,4-dione]	1000 to 10000	10 to 100	10 to 100

Results, then the compound that gave them:

IC50 [1] [nM]	IC50 (MDMX) [nM]	IC50 (MDM2) [nM]	Compound
≤ 1000	< 10	< 10	O=C(NCCO)C(c1ccc(F)c(F)c1)N1C(=O)N/C(=C\c2c[nH]c3c(F)c(Cl)ccc23)C1=O (stereo not drawn) [Compound 72, (Z)-2-(4-((6-chloro-7-fluoro-1H-indol-3-yl)methylene)-2,5-dioxoimidazolidin-1-yl)-2-(3,4-difluorophenyl)-N-(2-hydroxyethyl)acetamide]
≤ 1000	10 to 100	10 to 100	N#Cc1cccc(CN2C(=O)N/C(=C\c3c[nH]c4c(F)c(Cl)ccc34)C2=O)c1 [Compound 18, (Z)-3-((4-((6-chloro-7-fluoro-1H-indol-3-yl)methylene)-2,5-dioxoimidazolidin-1-yl)methyl)benzonitrile]
≤ 1000	< 10	< 10	Cc1c(Cl)ccc2c(/C=C3\NC(=O)N(C(C(=O)NCCO)c4ccc(Cl)cc4)C3=O)c[nH]c12 (stereo not drawn) [Compound 48, (Z)-2-(4-((6-chloro-7-methyl-1H-indol-3-yl)methylene)-2,5-dioxoimidazolidin-1-yl)-2-(4-chlorophenyl)-N-(2-hydroxyethyl)acetamide]
≤ 1000	< 10	< 10	Cc1c(Cl)ccc2c(/C=C3\NC(=O)N(C(C(=O)NCCO)c4ccc(C#N)cc4)C3=O)c[nH]c12 (stereo not drawn) [Compound 60, (Z)-2-(4-((6-chloro-7-methyl-1H-indol-3-yl)methylene)-2,5-dioxoimidazolidin-1-yl)-2-(4-cyanophenyl)-N-(2-hydroxyethyl)acetamide]
≤ 1000	10 to 100	< 10	O=C1N/C(=C\c2c[nH]c3c(F)c(Cl)ccc23)C(=O)N1Cc1cc(F)c(Cl)cc1F [Compound 100, (Z)-3-(4-chloro-2,5-difluorobenzyl)-5-((6-chloro-7-fluoro-1H-indol-3-yl)methylene)imidazolidine-2,4-dione]
≤ 1000	< 10	< 10	Cc1c(Cl)ccc2c(/C=C3\NC(=O)N(C(CO)c4ccc(C#N)cc4)C3=O)c[nH]c12 (stereo not drawn) [Compound 88, (Z)-4-(1-(4-((6-chloro-7-methyl-1H-indol-3-yl)methylene)-2,5-dioxoimidazolidin-1-yl)-2-hydroxyethyl)benzonitrile]
≤ 1000	10 to 100	10 to 100	N#Cc1c(F)cc(CN2C(=O)N/C(=C\c3c[nH]c4c(F)c(Cl)ccc34)C2=O)cc1F [Compound 35]
≤ 1000	< 10	< 10	O=C(NC(CO)CO)C(c1ccc(Cl)cc1)N1C(=O)N/C(=C\c2c[nH]c3c(F)c(Cl)ccc23)C1=O (stereo not drawn) [Compound 28, (Z)-2-(4-((6-chloro-7-fluoro-1H-indol-3-yl)methylene)-2,5-dioxoimidazolidin-1-yl)-2-(4-chlorophenyl)-N-(1,3-dihydroxypropan-2-yl)acetamide]
≤ 1000	10 to 100	< 10	O=C(NCCO)C(c1ccc(Cl)cc1)N1C(=O)N/C(=C\c2c[nH]c3c(F)c(Cl)ccc23)C1=O (stereo not drawn) [Compound 59, (Z)-2-(4-((6-chloro-7-fluoro-1H-indol-3-yl)methylene)-2,5-dioxoimidazolidin-1-yl)-2-(4-chlorophenyl)-N-(2-hydroxyethyl)acetamide]
≤ 1000	< 10	< 10	N#Cc1ccc(CN2C(=O)N/C(=C\c3c[nH]c4c(F)c(Cl)ccc34)C2=O)cc1 [Compound 16, (Z)-4-((4-((6-chloro-7-fluoro-1H-indol-3-yl)methylene)-2,5-dioxoimidazolidin-1-yl)methyl)benzonitrile]
≤ 1000	< 10	< 10	N#Cc1ccc(C(C(=O)NCCO)N2C(=O)N/C(=C\c3c[nH]c4c(F)c(Cl)ccc34)C2=O)cc1 (stereo not drawn) [Compound 58, (Z)-2-(4-((6-chloro-7-fluoro-1H-indol-3-yl)methylene)-2,5-dioxoimidazolidin-1-yl)-2-(4-cyanophenyl)-N-(2-hydroxyethyl)acetamide]
1000 to 10000	10 to 100	10 to 100	N#Cc1ccc(C(C=O)N2C(=O)N/C(=C\c3c[nH]c4c(F)c(Cl)ccc34)C2=O)cc1F (stereo not drawn) [Compound 33, (Z)-4-(1-(4-((6-chloro-7-fluoro-1H-indol-3-yl)methylene)-2,5-dioxoimidazolidin-1-yl)-2-oxyethyl)-2-fluorobenzonitrile]
1000 to 10000	10 to 100	10 to 100	O=C1N/C(=C\c2c[nH]c3cc(Br)ccc23)C(=O)N1Cc1ccc(Cl)cc1 [Compound 5, (Z)-5-((6-bromo-1H-indol-3-yl)methylene)-3-(4-chlorobenzyl)imidazolidine-2,4-dione]
≤ 1000	10 to 100	10 to 100	O=C1N/C(=C\c2c[nH]c3c(F)c(Cl)ccc23)C(=O)N1Cc1ccc(Cl)cc1 [Compound 15, (Z)-5-((6-chloro-7-fluoro-1H-indol-3-yl)methylene)-3-(4-chlorobenzyl)imidazolidine-2,4-dione]
≤ 1000	10 to 100	10 to 100	O=C1N/C(=C\c2c[nH]c3c(F)c(Cl)ccc23)C(=O)N1C(CO)c1cc(F)c(Cl)c(F)c1 (stereo not drawn) [Compound 107, (Z)-3-(1-(4-chloro-3,5-difluorophenyl)-2-hydroxyethyl)-5-((6-chloro-7-fluoro-1H-indol-3-yl)methylene)imidazolidine-2,4-dione]
